The values below come from the supplement of paper PMC10307832.

What all share (test): relative viability (nuclei count vs DMSO), 5 days (fraction); higher = more cells survive
Compound in one experiment: CC1(COc2ccc3c(c2)ncn3-c2ccc3cccc(N4CCC(N)CC4)c3n2)COC1 [Crenolanib]
In outline:
(§1)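 Five library-drug doses, separated by factors of √10, were pinned into 1536-well plates holding lung cancer cell lines after an overnight stay at 37 °C. Cells were fixed, permeabilised and Hoechst-stained in one step after 5 days without medium change, then imaged at 4×. Viability compares treated-well with vehicle-well nuclei, counted in MetaXpress, as a median across plates. Passing plates had control CV below 25% and at least one doubling.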

Compound in the next experiment: O=C1NC(=O)[C@@H](c2cn3c4c(cccc24)CCC3)[C@@H]1c1c[nH]c2ccccc12 [Tivantinib]
In outline:
as §1

Compound in the experiment “Crenolanib + Foretinib”: CC1(COc2ccc3c(c2)ncn3-c2ccc3cccc(N4CCC(N)CC4)c3n2)COC1 [Crenolanib] + COc1cc2c(Oc3ccc(NC(=O)C4(C(=O)Nc5ccc(F)cc5)CC4)cc3F)ccnc2cc1OCCCN1CCOCC1 [Foretinib] (partner 0.25 µM)
In outline:
(§2)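 Cells from lung cancer lines were seeded into 1536-well plates and, one day later, dosed by pin tool. Treatments were either a single drug or a fixed dose of an anchor drug with five library-drug doses (not always all listed) in √10 steps. After 5 days, nuclei were stained in a one-step fixation (final 0.05% Triton X-100, 1% formaldehyde, 1 ug/ml Hoechst) and counted on 4× images, and relative viability is the treated-to-vehicle nuclei ratio, as the median of duplicate plates.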

Compound in the experiment “Tivantinib + Palbociclib”: O=C1NC(=O)[C@@H](c2cn3c4c(cccc24)CCC3)[C@@H]1c1c[nH]c2ccccc12 [Tivantinib] + CC(=O)c1c(C)c2cnc(Nc3ccc(N4CCNCC4)cn3)nc2n(C2CCCC2)c1=O [Palbociclib] (partner 0.5 µM)
A digest of the protocol: as §2

On to UMC-11, for which the relative viability in the experiment with Crenolanib (0.01 µM) was 0.963; with Crenolanib (0.03162 µM), 0.978; with Crenolanib (0.1 µM) it was 0.972; in the experiment with Crenolanib (0.3162 µM) it was 1.01; with Crenolanib (1 µM) it was 0.931; with Tivantinib (0.01 µM) it was 0.966. Also, the relative viability with Tivantinib (0.03162 µM) is 0.842; with Tivantinib (0.1 µM), 0.923; in the experiment with Tivantinib (0.3162 µM), 1.03; with Crenolanib + Foretinib (first compound 0.01 µM), 1.07; in the experiment with Crenolanib + Foretinib (first compound 0.03162 µM), 1.11; with Crenolanib + Foretinib (first compound 0.1 µM), 0.95. Besides, the relative viability in the experiment with Crenolanib + Foretinib (first compound 0.3162 µM) is 1.21; with Crenolanib + Foretinib (first compound 1 µM), 0.947; with Tivantinib + Palbociclib (first compound 0.01 µM) it was 0.354; with Tivantinib + Palbociclib (first compound 0.03162 µM), 0.332; with Tivantinib + Palbociclib (first compound 0.1 µM) it was 0.314; with Tivantinib + Palbociclib (first compound 0.3162 µM), 0.311.
